Experimental data from paper PMC5767129 (European journal of pharmacology, 2017).

Experiments:
human P2X7 receptor [1] = target: T1, human P2X7 receptor (Homo sapiens, UniProt Q99572); assay: Ethidium bromide uptake fluorescence assay; assay type: cell-based
T1 sequence (Q99572 1-595): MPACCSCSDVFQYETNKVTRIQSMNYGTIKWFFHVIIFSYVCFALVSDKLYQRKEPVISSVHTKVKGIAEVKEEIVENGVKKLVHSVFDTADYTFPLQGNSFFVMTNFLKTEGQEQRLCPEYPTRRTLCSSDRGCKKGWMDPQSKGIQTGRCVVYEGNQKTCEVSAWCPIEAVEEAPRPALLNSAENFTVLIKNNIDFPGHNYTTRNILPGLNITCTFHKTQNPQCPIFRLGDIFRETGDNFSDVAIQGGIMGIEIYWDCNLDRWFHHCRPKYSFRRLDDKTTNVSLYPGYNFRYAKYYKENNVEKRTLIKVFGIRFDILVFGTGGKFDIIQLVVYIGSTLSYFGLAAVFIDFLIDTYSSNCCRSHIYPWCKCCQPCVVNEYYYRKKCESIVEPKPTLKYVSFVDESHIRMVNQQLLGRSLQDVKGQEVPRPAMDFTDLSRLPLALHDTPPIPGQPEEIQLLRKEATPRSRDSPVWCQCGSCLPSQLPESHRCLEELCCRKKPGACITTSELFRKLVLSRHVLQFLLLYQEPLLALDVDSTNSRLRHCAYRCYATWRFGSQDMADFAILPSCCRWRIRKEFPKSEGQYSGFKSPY

human P2X7 receptor [2] = target: T1, human P2X7 receptor; assay: Radioligand competition binding assay using [^3H]A804598
human P2X7 receptor [3] = target: T1, human P2X7 receptor; assay: Radioligand competition binding assay using [^123I]TZ6019
human P2X7 receptor [4] = target: T1, human P2X7 receptor; assay: Radioligand saturation binding assay with [^123I]TZ6019
P2X7 receptor = target: T2, P2X7 receptor (Mus musculus, UniProt Q9Z1M0); assay: In vitro autoradiography of P301S and wild type mouse brain slices; assay type: binding; conditions: for P2X7 receptor expression quantified by autoradiography: mean ± S.D., n = 3
T2 sequence (Q9Z1M0 1-595): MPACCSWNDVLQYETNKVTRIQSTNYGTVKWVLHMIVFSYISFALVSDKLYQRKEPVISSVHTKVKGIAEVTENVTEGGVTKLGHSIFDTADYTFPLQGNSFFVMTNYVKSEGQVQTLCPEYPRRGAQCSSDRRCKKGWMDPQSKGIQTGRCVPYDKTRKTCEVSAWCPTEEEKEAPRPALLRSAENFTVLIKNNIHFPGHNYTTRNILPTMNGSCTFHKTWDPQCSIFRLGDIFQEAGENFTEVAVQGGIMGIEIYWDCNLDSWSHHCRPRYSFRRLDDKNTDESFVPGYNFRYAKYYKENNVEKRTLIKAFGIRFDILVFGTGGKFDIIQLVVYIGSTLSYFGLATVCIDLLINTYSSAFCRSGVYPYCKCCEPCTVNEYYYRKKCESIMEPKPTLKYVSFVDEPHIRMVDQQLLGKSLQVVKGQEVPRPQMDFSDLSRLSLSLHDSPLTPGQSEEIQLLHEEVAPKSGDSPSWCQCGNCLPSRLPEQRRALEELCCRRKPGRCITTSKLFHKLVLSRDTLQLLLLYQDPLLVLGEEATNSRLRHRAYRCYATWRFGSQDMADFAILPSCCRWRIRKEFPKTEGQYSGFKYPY

human P2X7 receptor [5] = target: T1, human P2X7 receptor; conditions: carbon-11 labeled radioligand; ref Gao et al., 2015; Ory et al., 2016; cited from earlier work
rodents P2X7 receptor = conditions: carbon-11 labeled radioligand; ref Gao et al., 2015; Ory et al., 2016; cited from earlier work

For `O=C(NCc1cccc(C(F)(F)F)c1Cl)[C@@H]1CCC(=O)N1C/C=C/I` [TZ6019, (S,E)-N-(2-chloro-3-(trifluoromethyl)benzyl)-1-(3-iodoallyl)-5-oxopyrrolidine-2-carboxamide], the “fold lower binding potency than GSK1482160” value (human P2X7 receptor [1]; ratio of ethidium bromide assay IC50 values) was 5 fold, the IC50 (human P2X7 receptor [2]) was 12.9 ± 2 nM and the IC50 (human P2X7 receptor [3]) was 9.49 ± 1.4 nM.
For `O=C(NCc1cccc(C(F)(F)F)c1Cl)[C@@H]1CCC(=O)N1C/C=C/[123I]` [[^123I]TZ6019], the “specific binding as fraction of total binding” value (human P2X7 receptor [4]; saturation binding, nonspecific defined with 100 µM GSK1482160) was “approximately 40%”, the “fold higher autoradiography binding in P301S than wild type mice” value (P2X7 receptor; Cortex) was 2.4 fold and the “P2X7 receptor expression quantified by autoradiography” value (“P2X7 receptor expression quantified” for short) (P2X7 receptor; Cortex, P301S mice) was 330.53 ± 91.08 PSL/mm^2. For the same compound, the “P2X7 receptor expression quantified” value (P2X7 receptor; Cortex, Wild type mice) was 135.23 ± 32.55 PSL/mm^2, the “P2X7 receptor expression quantified” value (P2X7 receptor; Hippocampus, P301S mice, 9-month-old) was 255.05 ± 10.90 PSL/mm^2 and the “P2X7 receptor expression quantified” value (P2X7 receptor; Hippocampus, Wild type mice, 9-month-old) was 154.18 ± 16.14 PSL/mm^2. The “P2X7 receptor expression quantified” value (P2X7 receptor; Thalamus, P301S mice) was 337.98 ± 93.45 PSL/mm^2, the “P2X7 receptor expression quantified” value (P2X7 receptor; Thalamus, Wild type mice) was 187.41 ± 61.02 PSL/mm^2 and the “P2X7 receptor expression quantified” value (P2X7 receptor; Total brain, P301S mice) was 260.86 ± 48.93 PSL/mm^2. The “P2X7 receptor expression quantified” value (P2X7 receptor; Total brain, Wild type mice) was 193.05 ± 39.92 PSL/mm^2 and the “increase of binding in brain of P301S mice compared to wild type controls” value (P2X7 receptor; brain, n = 3, p = 0.04) was 35%.
`O=C(NCc1cccc(C(F)(F)F)c1Cl)[C@@H]1CCC(=O)N1C/C=C/I` [[^123I]TZ6019] showed a Kd (human P2X7 receptor [4]; read-out: Kd (saturation binding), HEK-293-hP2X7R cells, one-site fit, n = 3) of 19.3 ± 2.8 nM.
For `CN1C(=O)CC[C@H]1C(=O)NCc1cccc(C(F)(F)F)c1Cl` [GSK1482160, reference compound], the IC50 (human P2X7 receptor [1]) is listed as 2.1 ± 0.3 nM, the IC50 (human P2X7 receptor [2]) is listed as 8.65 ± 1 nM and the “binding to human P2X7 receptor” value (human P2X7 receptor [5]) is listed as “tight binding”. The “binding to rodents P2X7 receptor” value (rodents P2X7 receptor) was “weak binding” and the IC50 (human P2X7 receptor [3]) was 4.3 ± 0.9 nM.
